Results taken from paper PMC8427973, “Regulation of the HTRA2 Protease Activity by an Inhibitory Antibody-Derived Peptide Ligand and the Influence on HTRA2-Specific Protein Interaction Networks in Retinal Tissues” (Biomedicines, 2021).

Assays:
[1] = tested on: HTRA2-specific interaction partners FNLA, NCKAP1, POTEE, PSMC1, SEC13; experiment: Targeted MS analysis (accurate inclusion mass screening, AIMS) of HTRA2 Co-IP eluates; parameters: species or system house swine (Sus scrofa); details: repeated Co-IP, n = 3 biological replicates, Figure S3, CDR p < 0.05, UCF-101 p > 0.05
Description: Thereby, the peptides of interest were listed in the software inclusion list and the LTQ Orbitrap XL MS system only required MS/MS scans of the parent ions if the listed peptide was detected with an accurate mass and charge state. […] The selected peptides needed to be fully tryptic with a maximum of one missed cleavage, as described earlier. For this experiment, we repeated the Co-IP of the HTRA2-specific protein interaction partners ± treatments (see method Section 2.4) and subjected the respective eluate fractions to further in-solution trypsin digestion, as described elsewhere. In this case, the LTQ Orbitrap XL MS system was coupled online to an EASY-nLC 1200 system (Thermo Fisher Scientific, Rockford, IL, USA) using a PepMap C18 column system (75 µm × 500 mm; Thermo Fisher Scientific, Rockford, IL, USA). The dynamic exclusion mode was applied as follows: repeat count = 3, repeat duration = 30 s, exclusion size list = 100, exclusion time = 180 s, and the exclusion mass width ± 10 ppm. Protein identification and quantification were performed as described in Section 2.7.
For further validation of the HTRA2-specific interaction partners, we performed a targeted MS analysis via accurate inclusion mass screening (AIMS) technology. […] This time, the LC-MS system “only” recorded the unique peptide sequences of the previously identified HTRA2 interaction partners. […]

[2] = target: T1, recombinant HTRA2 protein (Homo sapiens, UniProt O43464); experiment: HTRA2 protease activity assay with fluorescent H2-optimal substrate; assay type: biochemical; details: for Average degradation rate of the optimal substrate H2 by HTRA2 (enzymatic reaction rate per minute): pH 8.0, RT, untreated positive control 229 U/min
T1 construct: 6xHis (C); purchased Novoprotein Scientific INC., Summit, NJ, USA
T1 sequence (O43464 134-458): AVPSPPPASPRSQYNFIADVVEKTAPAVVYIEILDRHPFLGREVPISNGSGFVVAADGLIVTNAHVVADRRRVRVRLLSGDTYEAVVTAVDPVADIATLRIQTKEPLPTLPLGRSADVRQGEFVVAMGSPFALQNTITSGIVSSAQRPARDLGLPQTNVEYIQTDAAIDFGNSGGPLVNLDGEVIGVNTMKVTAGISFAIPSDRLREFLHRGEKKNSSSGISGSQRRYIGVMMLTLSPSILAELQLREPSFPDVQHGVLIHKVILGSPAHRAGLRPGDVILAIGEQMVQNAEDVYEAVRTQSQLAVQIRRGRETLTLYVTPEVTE
Experimental: The HTRA2 protease activity assay was performed as described by Martins et al. (2003), but with some slight modifications. The experiment was performed with 100 nM recombinant HTRA2 protein (Novoprotein Scientific INC., Summit, NJ, USA) in a protease assay buffer (50 mM tris(hydroxymethyl)-aminomethane (TRIS), 0.5 mM ethylenediaminetetraacetic acid (EDTA), and 1 mM dithiothreitol (DTT), pH 8.0) containing 10 µM H2-optimal substrate (Innovagen AB, Lund, Sweden). The H2-optimal substrate is commonly used to measure the protease activity of HTRA2 and consists of a structural quencher and a fluorophore unit. The cleavage of the substrate leads to the disruption of the quencher/fluorophore complex and the degradation rate can be measured by fluorescence. The different sample groups were treated with 50 µM PDZ-Opt, 50 µM PDZ-Sub, 50 µM synthetic CDR1 peptide, or 30 µM UCF-101, respectively. The drug compound UCF-101 is an inhibitor of the catalytic domain of HTRA2 and was purchased from Sigma Aldrich (Darmstadt, Germany). The concentrations of the peptide ligands for the HTRA2 protease activity assay were chosen from the previous publication. The concentration of UCF-101 was determined to be optimal from the preliminary experiments. In addition, a positive control containing only 100 nM recombinant HTRA2 and a negative control (only protease assay buffer) were included in this experiment. All of the sample groups were incubated for 1 h at 37 °C to determine the maximum degradation rate of HTRA2. For the analysis of the enzymatic reaction rate of HTRA2, all samples were measured subsequently after the addition of the 10 µM H2-optimal substrate at RT. Fluorescence was monitored on a Spark® 10 M multimode microplate-reader (Tecan Trading AG, Männedorf, Switzerland) with an excitation at 320 nm and a fluorescence emission at 405 nm. The fluorescence background of the substrate was substracted from the fluorescence intensities of the different the sample groups to normalize the data.
To determine the proteolytic activity of HTRA2 we used the fluorescent H2 optimal substrate developed by Martins et al. (2003). The optimal substrate H2 encoded a short specific amino acid sequence, which is preferentially cleaved by HTRA2, and was also modified with a fluorescent dye and quencher. […] Under physiological conditions, the proteolytic activity of HTRA2 is suppressed by the C-terminal PDZ domain, which blocks the access of potential substrates to the catalytic domain by steric hindrance. The binding of short hydrophobic polypeptides to the allosteric PDZ domain can induce specific conformational changes of HTRA2 and are able to regulate its proteolytic activity. Therefore, Martins et al. (2003) specifically designed the peptide ligands PDZ-Opt (GQYYFV) and PDZ-Sub (GGIRRV), which are known to increase the proteolytic activity of HTRA2 in this assay.

Decrease of the average degradation rate of the optimal substrate H2 compared with the untreated positive control ([2]; 50 µM peptide, 100 nM HTRA2, 10 µM substrate, RT) | Average degradation rate of the optimal substrate H2 by HTRA2 (enzymatic reaction rate per minute) ([2]; 50 µM peptide, 100 nM recombinant HTRA2, 10 µM H2-optimal substrate, fluorescence ex 320 nm / em 405 nm) | Maximum degradation rate of the H2 optimal substrate by HTRA2 ([2]; 50 µM peptide, 1 h at 37 °C, n = 3, Figure 1C) | Inhibition of the proteolytic activity of HTRA2 ([2]; specific protease function assay, p < 0.01 (abstract)) | Molecule | Abundances of the co-enriched target proteins FNLA, NCKAP1, POTEE, PSMC1 and SEC13 compared with the HTRA2 group [1] | Average degradation rate of the optimal substrate H2 by HTRA2 (enzymatic reaction rate per minute) ([2]; 30 µM UCF-101, 100 nM recombinant HTRA2, 10 µM H2-optimal substrate)
 |  |  |  | O=C1C(=Cc2ccc(-c3ccccc3[N+](=O)[O-])o2)C(=O)N(c2ccccc2)C(=S)N1c1ccccc1 [UCF-101, reference compound] | slight decrease | 0 U/min
around 45% | 127 U/min | significantly decreased | up to 50% | ASGYTFTNYGLSWVR [CDR, synthetic peptide encoding a complementary-determining region 1 (CDR1) of polyclonal antibody molecules] | significantly diminished | 
